Reference: US4188387A, “Amino-aryl 1,24-triazines useful in the treatment of diverse pain” (priority 1977, dated 1980)
“Also recorded” adds a separate entry of the source. Where two headings read alike, the source gives them in different places.

Experiments:
[1] = Solubility; assay type: physicochemical; conditions: solvents named in the value
[2] = Analgesic activity according to […] et al. (phenyl benzoquinone injection); assay type: in vivo; conditions: oral, 30 minutes before the injection of phenyl benzoquinone
Experimental: The compounds are administered orally 30 minutes before the injection of phenyl benzoquinone.

[3] = test system: dental pulp; assay: Electric stimulation of dental pulp in rabbits (J. CHEYMOL et al.); assay type: in vivo
[4] = Ulcerogenic effect (criteria of PFEIFER and LEWALDOWFKI); assay type: in vivo; conditions: criteria of C. J. PFEIFER and L. G. LEWALDOWFKI
Text: J. PFEIFER and L. G. LEWALDOWFKI (Arch. Int. Pharmacodyn. 1971, 190, 5-13).

[5] = in vivo; conditions: mouse
Experimental: The toxicity study was carried out on the conventional mouse, weighing about 20 g.
The substances were administered orally and intraperitoneally.
The LD50 was calculated in accordance with the method of L. C. MILLER and M. L. TAINTER, Proc. Soc. exper.

[6] = ip, intraperitoneal, read-out: LD50 intraperitoneally

For CN(C)c1ccc(-c2nc(=O)n(C)nc2-c2ccc(N(C)C)cc2)cc1 [ST 729, 2-methyl 3-oxo 5,6-di(paradimethylamino-phenyl) as triazine], the solubility [1] was “insoluble in water, dilute bases, benzene, and ether; also recorded: Soluble in dilute acids, alcohol and methylene chloride”, the ED50 [2] was 1 mg/kg and the “analgesic activity in electric stimulation of dental pulp” value [3] was “confirmed”. For the same compound, the ulcerogenic effect [4] was “without ulcerogenic effect”.
For CN(C)c1ccc(-c2n[nH]c(=O)nc2-c2ccc(N(C)C)cc2)cc1, the solubility [1] was “Soluble in aqueous dilute bases and acids; also recorded: poorly soluble in alcohol, benzene, methylene chloride, chloroform; also recorded: Insoluble in ether”.
With CN(C)c1ccc(-c2nc(=O)n(CCN3CCOCC3)nc2-c2ccc(N(C)C)cc2)cc1 [ST 767, 2 Ethyl morpholino 3-oxo 5,6 di(paradimethylaminophenyl) as. triazine] the LD50 ([5]; oral, read-out: LD50 orally) was greater than 1000 mg/kg, the solubility [1] was “Soluble in dilute aqueous acids, alcohol, methylene chloride, and chloroform; also recorded: Insoluble in water and dilute bases, benzene and ether” and the ED50 [2] was 1 to 50 mg/kg.
For CCN(CC)c1ccc(-c2nc(=O)n(C)nc2-c2ccc(N(CC)CC)cc2)cc1 [ST 771, 2-methyl 3-oxo 5,6-di(paradiethylaminophenyl) as triazine], the LD50 ([5]; oral, read-out: LD50 orally) was greater than 1000 mg/kg and the solubility [1] was “Soluble in dilute aqueous acids, alcohol, methylene chloride, and chloroform; also recorded: Insoluble in water, dilute bases, benzene, ether”.
In the case of CN(C)c1ccc(-c2nc(=S)n(C)nc2-c2ccc(N(C)C)cc2)cc1 [ST 811, 2-methyl 3-thione 5,6-di(paradimethylaminophenyl)as triazine], the LD50 ([5]; oral, read-out: LD50 orally) is reported as greater than 1000 mg/kg, the solubility [1] is reported as “Soluble in aqueous dilute acids, alcohols, and methylene chloride; also recorded: Insoluble in water, aqueous bases, and ether” and the ED50 [2] is reported as 1 to 50 mg/kg.
With CCN(CC)CCn1nc(-c2ccc(N(C)C)cc2)c(-c2ccc(N(C)C)cc2)nc1=O [ST 790, 2-diethylaminoethyl 3-oxo 5,6(paradimethylaminophenyl) as triazine] the LD50 ([5]; oral, read-out: LD50 orally) was greater than 1000 mg/kg, the solubility [1] was “Soluble in dilute aqueous acids, alcohol, benzene, methylene chloride, and chloroform; also recorded: Insoluble in bases, water, and ether” and the ED50 [2] was 1 to 50 mg/kg.
In the case of O=C(OCC(O)CO)c1ccccc1Nc1ccnc2cc(Cl)ccc12 (stereo not drawn) [Glaphenine, reference compound], the ED50 [2] is reported as 36 mg/kg.
In the case of CN(C)c1ccc(-c2n[nH]c(=O)nc2-c2ccccc2Cl)cc1 [ST 745], the solubility [1] is reported as “Insoluble in water, benzene, and ether; also recorded: Soluble in dilute bases and acids, ethanol, and methylene chloride”.
For CN(C)c1ccc(-c2nn(C)c(=O)nc2-c2ccccc2Cl)cc1 [ST 746, 2-methyl 3-oxo 5(orthochlorophenyl) 6(paradimethylaminophenyl) as. triazine], the LD50 [5, 6] was 300 mg/kg, the LD50 ([5]; oral, read-out: LD50 orally) was 1000 mg/kg and the solubility [1] was “Insoluble in water, dilute bases and ether; also recorded: Soluble in methylene chloride, benzene, alcohol, chloroform and dilute acids”. For the same compound, the ED50 [2] was 100 mg/kg.
For CN(C)c1ccc(-c2nn(C)c(=O)nc2-c2ccc(Cl)cc2)cc1 [ST 761, 2-methyl 3-oxo 5(parachlorophenyl) 6(p-dimethylaminophenyl) as triazine], the LD50 [5, 6] was 400 mg/kg, the LD50 ([5]; oral, read-out: LD50 orally) was 1500 mg/kg and the solubility [1] was “Soluble in dilute acids, CH2 Cl2, and chloroform; also recorded: Insoluble in water, dilute bases, and ether”. The ED50 [2] was 4 mg/kg.
For CCN(CC)c1ccc(-c2nnc(O)nc2-c2ccc(N(CC)CC)cc2)cc1 [ST 770, 3-oxo 5,6-di(paradiethylaminophenyl) as triazine], the solubility [1] was “Soluble in dilute acids and bases, alcohol, benzene, and methylene chloride”.
With CN(C)CCCn1nc(-c2ccc(N(C)C)cc2)c(-c2ccc(N(C)C)cc2)nc1=O [ST 778] the LD50 ([5]; oral, read-out: LD50 orally) was greater than 1000 mg/kg, the solubility [1] was “Soluble in dilute aqueous acids, alcohol, benzene, methylene chloride, and chloroform; also recorded: Insoluble in water, dilute bases and ether” and the ED50 [2] was 1 to 50 mg/kg.
CC(=O)Oc1ccccc1C(=O)O [Acetylsalicylic acid, reference compound] gave an ED50 [2] of 100 mg/kg.
With C=CCn1nc(-c2ccc(N(C)C)cc2)c(-c2ccc(N(C)C)cc2)nc1=O [ST 776, 2-allyl 3-oxo 5,6-di(paradimethylaminophenyl) as triazine] the LD50 ([5]; oral, read-out: LD50 orally) was greater than 1000 mg/kg, the solubility [1] was “Soluble in dilute aqueous acids, alcohol, benzene, methylene chloride, and chloroform; also recorded: Insoluble in water, bases, and ether” and the ED50 [2] was 1 to 50 mg/kg. For the same compound, the “analgesic activity in electric stimulation of dental pulp” value [3] was “confirmed” and the ulcerogenic effect [4] was “without ulcerogenic effect”.
